Measurements published in US20250170096A1, “OXPHOS INHIBITORS FOR USE IN TREATING CANCER” (ImmunoMet Therapeutics, Inc., priority 2022, published 2025).

Tests used:
OXPHOS = assay: Pre- and post-treatment biopsies of patients receiving cancer therapies; type: in vivo; settings: for Effect of therapy on OXPHOS, post-treatment versus pre-treatment biopsies: across cancers, named as the most significant therapies
Excerpt: Biopsies were collected from subjects undergoing treatment for cancer (FIG. 1A).

[1] = system: Patient derived xenograft cells; assay: Growth of patient derived xenograft cells treated in vitro; type: cell-based; settings: in vitro exposure of patient-derived xenograft cells to gemcitabine; FIG. 2
Method: Patient derived xenograft cells were treated with the compound of Formula 1, Gemcitabine (Gem), or the compound of Formula 1 and gemcitabine together (FIG. 2). Cells treated with both Gem and Formula 1 grew slower than cells treated with Formula 1 or Gem alone.

## N.N.O=C([O-])C1(C(=O)[O-])CCC1.[Pt+2] [carboplatin]
OXPHOS
  Effect of therapy on OXPHOS, post-treatment versus pre-treatment biopsies: increase OXPHOS
OXPHOS; breast cancer, endometrial cancer, NSCLC, ovarian cancer, FIG. 1G
  OXPHOS following treatment: increase in OXPHOS

## O=P1(N(CCCl)CCCl)NCCCO1 (centres unmarked) [cyclophosphamide]
OXPHOS
  Effect of therapy on OXPHOS, post-treatment versus pre-treatment biopsies: increase OXPHOS
OXPHOS; breast cancer and sarcoma, FIG. 1F
  OXPHOS following treatment: increase in OXPHOS

## COc1cccc2c1C(=O)c1c(O)c3c(c(O)c1C2=O)C[C@@](O)(C(=O)CO)C[C@@H]3O[C@H]1C[C@H](N)[C@H](O)[C@H](C)O1 [doxorubicin]
OXPHOS
  Effect of therapy on OXPHOS, post-treatment versus pre-treatment biopsies: increase OXPHOS
OXPHOS; bladder cancer, breast cancer, sarcoma, FIG. 1H
  OXPHOS following treatment: increase in OXPHOS

## CNC(=O)c1ccc(N2C(=S)N(c3ccc(C#N)c(C(F)(F)F)c3)C(=O)C2(C)C)cc1F [enzalutamide]
OXPHOS
  Effect of therapy on OXPHOS, post-treatment versus pre-treatment biopsies: increase OXPHOS
OXPHOS; prostate cancer, FIG. 1D
  OXPHOS following treatment: increase in OXPHOS

## C[C@]12CC[C@@H]3c4ccc(O)cc4C[C@@H](CCCCCCCCC[S+]([O-])CCCC(F)(F)C(F)(F)F)[C@H]3[C@@H]1CC[C@@H]2O (some centres unmarked) [fulvestrant]
OXPHOS
  Effect of therapy on OXPHOS, post-treatment versus pre-treatment biopsies: increase OXPHOS
OXPHOS; breast cancer, FIG. 1E
  OXPHOS following treatment: increase in OXPHOS

## Nc1ccn([C@@H]2O[C@H](CO)[C@@H](O)C2(F)F)c(=O)n1 [gemcitabine, Gemcitabine]
[1]
  Sensitization of tumor cells to the compound of Formula 1: sensitizes tumor cells to the compound of Formula 1

## N#Cc1ccc(C(c2ccc(C#N)cc2)n2cncn2)cc1 [letrozole]
OXPHOS
  Effect of therapy on OXPHOS, post-treatment versus pre-treatment biopsies: increase OXPHOS
OXPHOS; breast cancer, FIG. 1E
  OXPHOS following treatment: increase in OXPHOS

## CCNC(=O)[C@@H]1CCCN1C(=O)[C@H](CCCNC(=N)N)NC(=O)[C@H](CC(C)C)NC(=O)[C@@H](CC(C)C)NC(=O)[C@H](Cc1ccc(O)cc1)NC(=O)[C@H](CO)NC(=O)[C@H](Cc1c[nH]c2ccccc12)NC(=O)[C@H](Cc1c[nH]cn1)NC(=O)[C@@H]1CCC(=O)N1 [leuprolide]
OXPHOS
  Effect of therapy on OXPHOS, post-treatment versus pre-treatment biopsies: increase OXPHOS
OXPHOS; breast cancer and prostate cancer, FIG. 1C
  OXPHOS following treatment: increase in OXPHOS

## CC(=O)O[C@H]1C(=O)[C@@]2(C)[C@H]([C@H](OC(=O)c3ccccc3)[C@]3(O)C[C@H](OC(=O)[C@H](O)[C@@H](NC(=O)c4ccccc4)c4ccccc4)C(C)=C1C3(C)C)[C@]1(OC(C)=O)CO[C@@H]1C[C@@H]2O [paclitaxel]
OXPHOS
  Effect of therapy on OXPHOS, post-treatment versus pre-treatment biopsies: increase OXPHOS
OXPHOS; breast cancer, endometrial cancer, NSCLC, ovarian cancer, FIG. 1I
  OXPHOS following treatment: increase in OXPHOS
